Reference: ChEMBL document CHEMBL3352354, “Novel FTY720-Based Compounds Stimulate Neurotrophin Expression and Phosphatase Activity in Dopaminergic Cells” (ACS Med Chem Lett, 2014)
The source made the active and inactive calls. No cut-off for these calls is given here.

How the values were obtained:
Homo sapiens [1] = organism: Homo sapiens; experiment: Induction of recombinant PP2A catalytic subunit (unknown origin) activity assessed as phosphate level using threonine-phosphopeptide at 5 uM
PC-12 = experiment: Induction of PP2A catalytic subunit activity in rat PC12 cells assessed as phosphate level at 5 uM measured 30 to 120 mins; type: cell-based
Homo sapiens [2] = organism: Homo sapiens; experiment: Induction of recombinant PP2A catalytic subunit (unknown origin) activity assessed as phosphate level at 5 uM relative to control
MN9D [3] = experiment: Induction of PP2A catalytic subunit activity in mouse MN9D cells assessed as phosphate level at 5 uM; type: cell-based
[4] = Cytotoxicity against mouse MN9D cells assessed as metabolic activity at > 1.5 uM after 72 hrs by MTS assay; type: ADME, cell-based
[5] = Neuroprotective activity in mouse MN9D cells assessed as cell division at 0.04 to 0.16 uM after 72 hrs by DAPI staining (reference value: 100 +/- 4.15%); type: functional
[6] = Neuroprotective activity in mouse MN9D cells assessed as stimulation of BDNF expression at 0.16 uM after 24 hrs; type: functional, cell-based
MN9D [7] = experiment: Neuroprotective activity in mouse MN9D cells assessed as blocking of TNF-alpha associated toxicity at 0.16 uM after 72 hrs by Trypan blue staining; type: functional, cell-based

Activity (Homo sapiens [1]) | fold change (FC) (Homo sapiens [2]) | Compound | Activity (PC-12) | Activity (MN9D [3]) | Activity [4] | Activity [5] | Activity [6] | inhibition (MN9D [7])
Active | – | CCCCCCCCCCCCC/C=C/[C@H](O)[C@@H](CO)NC(=O)CCCCC | – | – | – | – | – | –
inactive | – | CCCCCCCCCCCCC/C=C/[C@H](O)[C@@H](CO)NC(=O)CCCCCCCCC | – | – | – | – | – | –
Active | 8 | CCCCCCCCCCCCC/C=C/[C@H](O)[C@@H](CO)NC(C)=O | – | – | – | – | – | –

Further lines, the compound ahead of its results:

Compound | Activity (Homo sapiens [1]) | fold change (FC) (Homo sapiens [2]) | Activity (PC-12) | Activity (MN9D [3]) | Activity [4] | Activity [5] | Activity [6] | inhibition (MN9D [7])
CCCCCCCCc1ccc(CCC(N)(CO)CO)cc1 [FINGOLIMOD] | Active | 4 | Active | Active | Toxic | 98% | Active | Active
CCCCCCCCc1ccc(CCC(CO)(CO)NC(C)=O)cc1 | – | 8 | – | Active | Toxic | 91.44% | Active | Active
CCCCCCCCc1ccc(CCC(CO)(CO)NC(=O)CC[P+](c2ccccc2)(c2ccccc2)c2ccccc2)cc1.[Br-] | – | 4 | – | Active | Toxic | 101.37% | Active | Active
